The values below come from US10150771B2, “Triazolopyrazinones as PDE1 inhibitors” (H. Lundbeck A/S, priority 2014, dated 2018).

Common to all, as to type: biochemical
Assay [1] addresses PDE1B (Homo sapiens, UniProt Q01064). Kind of assay: PDE1 inhibition assay (SPA), PDE1B. The note with it: for IC50: concentration required to reach 50% inhibition of the enzyme, 15 nM tritium labelled cAMP, read-out: PDE1B inhibition (nM or %): IC50; for inhibition at 10 µM: 1 h, % inhibition of the enzyme at a concentration of 10 micro molar of the compound, read-out: PDE1B inhibition (nM or %): % inhib. The method in brief: (§1)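 A scintillation proximity assay used enzyme sufficient for 20–25% substrate conversion and 15 nM tritiated cAMP in 50 mM HEPES pH 7.6, 10 mM MgCl2, 0.02% Tween20 and 0.1 mg/ml BSA, run for 1 h at room temperature. Reactions were stopped with yttrium silicate SPA beads. IC50 values were derived from activity relative to uninhibited control.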

Assay [2] has as its target PDE1C (Homo sapiens, UniProt Q14123). The assay is described as follows: PDE1 inhibition assay (SPA), PDE1C. The note with it: for IC50: concentration required to reach 50% inhibition of the enzyme, 15 nM tritium labelled cAMP, read-out: PDE1C inhibition (nM or %): IC50. In outline: as §1
Assay [3] deals with PDE1A (Homo sapiens, UniProt P54750). Kind of assay: PDE1 inhibition assay (SPA), PDE1A. Conditions: for IC50: concentration required to reach 50% inhibition of the enzyme, 15 nM tritium labelled cAMP, read-out: PDE1A inhibition (nM or %): IC50; for inhibition at 10 µM: 1 h, % inhibition of the enzyme at a concentration of 10 micro molar of the compound, read-out: PDE1A inhibition (nM or %): % inhib. The method in brief:
as §1

PDE1C, sequence (Q14123 whole entry): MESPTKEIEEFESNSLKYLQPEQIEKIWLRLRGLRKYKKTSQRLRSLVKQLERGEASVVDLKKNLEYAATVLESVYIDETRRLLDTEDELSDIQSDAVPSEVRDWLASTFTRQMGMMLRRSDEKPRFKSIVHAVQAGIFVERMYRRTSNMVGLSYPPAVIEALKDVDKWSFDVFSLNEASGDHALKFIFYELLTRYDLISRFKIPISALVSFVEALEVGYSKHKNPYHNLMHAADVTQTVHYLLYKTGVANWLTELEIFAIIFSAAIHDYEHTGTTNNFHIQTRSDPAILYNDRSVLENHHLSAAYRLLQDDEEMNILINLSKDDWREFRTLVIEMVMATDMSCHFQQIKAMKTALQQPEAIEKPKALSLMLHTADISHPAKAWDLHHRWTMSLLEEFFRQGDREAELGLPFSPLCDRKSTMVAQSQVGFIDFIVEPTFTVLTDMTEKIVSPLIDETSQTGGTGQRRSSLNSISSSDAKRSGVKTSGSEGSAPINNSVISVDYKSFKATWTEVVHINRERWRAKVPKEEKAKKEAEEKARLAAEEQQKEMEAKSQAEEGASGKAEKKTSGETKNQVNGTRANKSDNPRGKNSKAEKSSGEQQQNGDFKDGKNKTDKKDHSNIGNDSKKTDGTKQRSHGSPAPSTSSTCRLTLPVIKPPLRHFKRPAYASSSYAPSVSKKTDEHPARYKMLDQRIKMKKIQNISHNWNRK
PDE1B, sequence (Q01064 whole entry): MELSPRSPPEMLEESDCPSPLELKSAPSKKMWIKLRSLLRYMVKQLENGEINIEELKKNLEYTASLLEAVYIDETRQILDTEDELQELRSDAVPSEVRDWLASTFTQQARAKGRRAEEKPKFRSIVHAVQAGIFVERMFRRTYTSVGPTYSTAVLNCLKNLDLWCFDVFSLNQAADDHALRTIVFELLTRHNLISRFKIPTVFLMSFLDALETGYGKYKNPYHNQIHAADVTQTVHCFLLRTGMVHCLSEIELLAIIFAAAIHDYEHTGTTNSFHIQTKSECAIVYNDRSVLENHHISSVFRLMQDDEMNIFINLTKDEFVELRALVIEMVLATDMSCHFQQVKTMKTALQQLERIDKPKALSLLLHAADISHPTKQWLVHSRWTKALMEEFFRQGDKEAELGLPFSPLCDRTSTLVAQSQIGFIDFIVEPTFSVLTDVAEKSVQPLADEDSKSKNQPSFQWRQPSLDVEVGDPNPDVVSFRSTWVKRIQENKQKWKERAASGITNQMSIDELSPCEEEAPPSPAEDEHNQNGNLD
PDE1A, sequence (P54750 whole entry): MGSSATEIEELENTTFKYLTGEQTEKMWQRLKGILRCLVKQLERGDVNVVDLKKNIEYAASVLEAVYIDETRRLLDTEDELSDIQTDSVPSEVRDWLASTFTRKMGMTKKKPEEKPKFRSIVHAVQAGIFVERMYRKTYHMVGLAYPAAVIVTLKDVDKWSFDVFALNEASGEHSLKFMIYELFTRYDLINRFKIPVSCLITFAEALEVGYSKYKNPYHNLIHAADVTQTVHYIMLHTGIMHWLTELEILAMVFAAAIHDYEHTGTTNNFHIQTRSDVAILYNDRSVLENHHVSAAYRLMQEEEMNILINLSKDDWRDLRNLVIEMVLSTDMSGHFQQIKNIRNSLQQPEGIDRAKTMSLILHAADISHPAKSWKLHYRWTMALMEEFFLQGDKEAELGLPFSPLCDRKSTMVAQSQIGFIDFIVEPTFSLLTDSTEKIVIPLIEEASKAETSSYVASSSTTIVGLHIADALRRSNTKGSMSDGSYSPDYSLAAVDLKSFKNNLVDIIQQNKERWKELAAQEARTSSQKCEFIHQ

On to `O=c1c2nnc(C3CCOCC3)n2cc(Cc2cccc(F)c2)n1CC1CCCCC1` [7-(cyclohexylmethyl)-6-(3-fluorobenzyl)-3-(tetrahydro-2H-pyran-4-yl)-[1,2,4]triazolo[4,3-a]pyrazin-8(7H)-one], for which the IC50 stood at 22 nM in assay [1], 6 nM in assay [2] and 24 nM in assay [3].
In the case of `Cc1cccc(Cc2cn3c(C4CCOCC4)nnc3c(=O)n2CC2CCCCC2)c1` [7-(cyclohexylmethyl)-6-(3-methylbenzyl)-3-(tetrahydro-2H-pyran-4-yl)-[1,2,4]triazolo[4,3-a]pyrazin-8(7H)-one], the IC50 came out at 3 nM in assay [1], 1 nM in assay [2] and 2 nM in assay [3].
As for `O=c1c2nnc(C3CCOCC3)n2cc(Cc2ccc(F)cc2)n1CC1CCCCC1` [7-(cyclohexylmethyl)-6-(4-fluorobenzyl)-3-(tetrahydro-2H-pyran-4-yl)-[1,2,4]triazolo[4,3-a]pyrazin-8(7H)-one], the values for the IC50 in assay [1], in assay [2] and in assay [3] were 17 nM, 6 nM and 12 nM, respectively.
As for `Cc1ccc(Cc2cn3c(C4CCOCC4)nnc3c(=O)n2CC2CCCCC2)cc1` [7-(cyclohexylmethyl)-6-(4-methylbenzyl)-3-(tetrahydro-2H-pyran-4-yl)-[1,2,4]triazolo[4,3-a]pyrazin-8(7H)-one], the IC50 amounted to 2 nM in assay [1], 1 nM in assay [2] and 1 nM in assay [3].
Take `Cc1ccccc1Cc1cn2c(C3CCOCC3)nnc2c(=O)n1CC1CCCC1` [7-(cyclopentylmethyl)-6-(2-methylbenzyl)-3-(tetrahydro-2H-pyran-4-yl)-[1,2,4]triazolo[4,3-a]pyrazin-8(7H)-one]: the IC50 came out at 260 nM in assay [1], 23 nM in assay [2] and 251 nM in assay [3].
Consider `O=c1c2nnc(C3CCOCC3)n2cc(Cc2cccc(F)c2)n1CC1CCCC1` [7-(cyclopentylmethyl)-6-(3-fluorobenzyl)-3-(tetrahydro-2H-pyran-4-yl)-[1,2,4]triazolo[4,3-a]pyrazin-8(7H)-one], for which the IC50 in assay [1] amounted to 220 nM; in assay [2], 27 nM; in assay [3] it was 369 nM.
`Cc1cccc(Cc2cn3c(C4CCOCC4)nnc3c(=O)n2CC2CCCC2)c1` [7-(cyclopentylmethyl)-6-(3-methylbenzyl)-3-(tetrahydro-2H-pyran-4-yl)-[1,2,4]triazolo[4,3-a]pyrazin-8(7H)-one]: the IC50 was 37 nM in assay [1], 4 nM in assay [2] and 17 nM in assay [3].
Regarding `O=c1c2nnc(C3CCOCC3)n2cc(Cc2ccc(F)cc2)n1CC1CCCC1` [7-(cyclopentylmethyl)-6-(4-fluorobenzyl)-3-(tetrahydro-2H-pyran-4-yl)-[1,2,4]triazolo[4,3-a]pyrazin-8(7H)-one], the IC50 in assay [1] came out at 140 nM; in assay [2] it was 12 nM; in assay [3], 142 nM.
For the compound `Cc1ccc(Cc2cn3c(C4CCOCC4)nnc3c(=O)n2CC2CCCC2)cc1` [7-(cyclopentylmethyl)-6-(4-methylbenzyl)-3-(tetrahydro-2H-pyran-4-yl)-[1,2,4]triazolo[4,3-a]pyrazin-8(7H)-one], the IC50 is 19 nM in assay [1], 3 nM in assay [2] and 21 nM in assay [3].
Turning to `CCCc1nnc2c(=O)n(Cc3ccccc3)ccn12` [7-Benzyl-3-propyl-[1,2,4]triazolo[4,3-a]pyrazin-8(7H)-one], the results for the IC50 in assay [1], in assay [2] and in assay [3] were 400 nM, 110 nM and 770 nM, respectively.
Turning to `CCCc1nnc2c(=O)n(CC)ccn12` [7-Ethyl-3-propyl-[1,2,4]triazolo[4,3-a]pyrazin-8(7H)-one], the inhibition at 10 µM worked out at 71% in assay [1] and 49% in assay [3]. Also, the “PDE1C inhibition (nM or %): % inhib” value in assay [2] (% inhibition of the enzyme at a concentration of 10 micro molar of the compound) was 52%.
Turning to `CCCCCCn1ccn2c(C3CCOCC3)nnc2c1=O` [7-Hexyl-3-(tetrahydro-2H-pyran-4-yl)-[1,2,4]triazolo[4,3-a]pyrazin-8(7H)-one], the IC50 worked out at 1000 nM in assay [1], 1100 nM in assay [2] and 1260 nM in assay [3].
With `CCCc1nnc2c(=O)n(CC(C)C)ccn12` [7-Isobutyl-3-propyl-[1,2,4]triazolo[4,3-a]pyrazin-8(7H)-one], the IC50 in assay [1] is 2700 nM; in assay [2] it was 970 nM; in assay [3], 3300 nM.
`CC(C)CCn1ccn2c(C3CCOCC3)nnc2c1=O` [7-isopentyl-3-(tetrahydro-2H-pyran-4-yl)-[1,2,4]triazolo[4,3-a]pyrazin-8(7H)-one]: the inhibition at 10 µM in assay [1] turned out to be 55%; in assay [3] it was 47%. Further, in assay [2], the IC50 was determined as 1100 nM.
